# Laboratory results: patent publication US20110104695A1, “METHODS OF PREDICTING THERAPEUTIC EFFICACY OF CANCER THERAPY” (Epigenomics AG, priority 2009, published 2011)
# What was measured:
# TFAP2E [1] = test: TFAP2E mRNA expression by RT-PCR in CRC cell lines after drug treatment; type: cell-based, human
# Protocol: Colon cancer cell lines LOVO and DLD-1 were obtained from the Deutsche Sammlung von Mikroorganismen und Zellkulturen GmbH (Braunschweig, Germany). SW480, HT-29, HCT-116 and CACO-2 colon cancer cell lines were obtained from ATCC (Washington, D.C., USA). Cells were cultured in 90% DMEM medium supplemented with 10% fetal bovine serum and 2 mM L-glutamine (Invitrogen, Karslruhe, Germany). CACO-2 cells were maintained in 80% DMEM with 20% FBS. […] Culture medium was changed daily for 3 days with recurrent 5-aza-2-deoxycytidine additions. After 3 days, the cells were harvested for total RNA extraction with the RNeasy Total RNA Mini Kit (Qiagen, Hilden, Germany).
# The RNA and DNA extraction from cell lines or 10-25 mg of frozen tissue samples was carried out using the RNeasy Total RNA Mini Kit or the QIAmp DNA Mini Kit (Qiagen, Hilden, Germany) respectively, using the manufacturer's instructions.
# (§1) Genomic DNA was treated with the Epitect Bisulfite Conversion Kit (Qiagen, Hilden, Germany) according to the manufacturer's instructions and then analyzed using the MethyLight technique or MS-HRM as previously described. Cutoff values giving the best discrimination between non-neoplastic mucosa and tumor samples were determined by receiver operating characteristic (ROC) analysis. The expression analysis of the mRNA was performed by RT-PCR with the Verso cDNA Kit (Thermo Fischer, Darmstadt, Germany) according to the manufacturer's instructions.
# colorectal cancer = test: Treatment response in colorectal cancer patient cohorts (RECIST or histology); type: in vivo, human; settings: Cohort IV (München), primary rectal cancer, chemoradiotherapy (intravenous 5-FU and 45.0 Gy), 68 patients, histological criteria
# Protocol: Samples were obtained from patients undergoing colorectal cancer surgery or chemotherapy at the University Hospitals in Munich, Mannheim, Bochum, Berlin and Dresden (all Germany). Tissues were obtained during resection of the primary tumor or by biopsy. […] Response to chemotherapy was assessed by RECIST criteria, response to chemoradiotherapy by histology as previously described.
# SW480 cells = test: Cell survival after drug exposure (MTT assay), transfected SW480 cells
# TFAP2E [2] = test: MethyLight analysis of TFAP2E methylation in CRC cell lines; type: cell-based, human; settings: all CRC cell lines; after 5-azacytidine treatment
# Protocol: (§2) Colon cancer cell lines LOVO and DLD-1 were obtained from the Deutsche Sammlung von Mikroorganismen und Zellkulturen GmbH (Braunschweig, Germany). SW480, HT-29, HCT-116 and CACO-2 colon cancer cell lines were obtained from ATCC (Washington, D.C., USA). Cells were cultured in 90% DMEM medium supplemented with 10% fetal bovine serum and 2 mM L-glutamine (Invitrogen, Karslruhe, Germany). CACO-2 cells were maintained in 80% DMEM with 20% FBS. Cells were seeded at a density of 1×10^6 cells/60-mm dish, after twenty-four hours incubated with 5-aza-cytidine (final concentration 10 μmol/L; Sigma, Munich, Germany) or the same amount of DMSO as control. Culture medium was changed daily for 3 days with recurrent 5-aza-2-deoxycytidine additions. After 3 days, the cells were harvested for total RNA extraction with the RNeasy Total RNA Mini Kit (Qiagen, Hilden, Germany).
# Primers for methylated TFAP2E covered CpGs in the second CpG island (FIG. 5). […]
# as §1, with “The expression analysis of the mRNA was performed by RT-PCR with the Verso cDNA Kit (Thermo Fischer, Darmstadt, Germany) according to the manufacturer's instructions.” left out
# DKK4 = DKK4 mRNA expression in untransfected CRC cell lines; type: cell-based, human; settings: SW480 and CACO-2 cells; after 5-azacytidine treatment
# Protocol: as §2
# as §1, with “The expression analysis of the mRNA was performed by RT-PCR with the Verso cDNA Kit (Thermo Fischer, Darmstadt, Germany) according to the manufacturer's instructions.” left out
structure (smiles),measurement,setting,value
CC(/C=C/C(=O)NO)=C\[C@@H](C)C(=O)c1ccc(N(C)C)cc1 [Trichostatin A],TFAP2E expression after treatment,"TFAP2E [1]; CACO-2 cells, Trichostatin A treatment",weak expression
same,TFAP2E mRNA levels,"TFAP2E [1]; CRC cell lines except CACO-2, Trichostatin A treatment",no effect
"O=c1[nH]cc(F)c(=O)[nH]1 [5-FU, 5-fluorouracil]",patients classified as responders,colorectal cancer,47%
same,responsiveness to 5-FU,SW480 cells; SW480 transfected with both pTFAP2E and pcDNA3-Dkk4,intermediate responsiveness
same,decrease in survival compared to controls,"SW480 cells; SW480 transiently transfected with pTFAP2E, 5-FU 50 μg/ml, after 2 days",about 20%
same,increase in survival compared to controls,"SW480 cells; SW480 transiently transfected with pcDNA3-Dkk4, 5-FU 50 μg/ml, after 2 days",about 10%
Nc1ncn([C@@H]2O[C@H](CO)[C@@H](O)[C@H]2O)c(=O)n1 [5-azacytidine],TFAP2E methylation (MethyLight),TFAP2E [2],declined
same,DKK4 expression,DKK4,lost
same,TFAP2E expression (RT-PCR),"TFAP2E [1]; CACO-2 and SW480 cells, 5-aza-cytidine 10 μmol/L, 3 days",showed expression after 5-aza-cytidine treatment only
